Molecules are shown by their SMILES.

One assay deals with NCI-H716 cells. In words: Extracellular oxygen consumption rate assay (Seahorse XF96). Format: cell-based, human. Here is the method:
Briefly, NCI-H716 cells were seeded in XF 96-well cell culture microplates (Seahorse Bioscience) at 6.0×10^4 cells per well in 150 μl of growth medium and then incubated at 37° C./5% CO2 for 24 hr. A Seahorse Bioscience instrument model XF96 was used to measure the rate of change of dissolved oxygen in the media surrounding the cells. All procedures followed manufacturer's instructions. […] Conversely, treatment with the FXR antagonist guggulsterone reduced basal respiratory rates and the FCCP-induced maximum respiration rate (FIGS. 9A and 9B). To examine the effects of FXR activity on the secretion of GLP-1, the metabolic changes induced in human L cells was measured after treatment with the FXR agonist, fexaramine and an FXR antagonist, guggulsterone. Treatment of L cells with fexaramine (1 μM for 24 hours) lead to an increase in the oxygen consumption rate (OCR), consistent with increased mitochondrial activity and consequently, an increased energetic state (FIG. 9A). The reverse effect was seen after treatment with the FXR antagonist, guggulsterone, with lower OCR after drug treatment.

Assay [1] deals with human enteroendocrinal L cells (NCI-H716). Nature of the assay: In vitro GLP-1 secretion assay. Format: cell-based. The note with it: L cells pretreated with compound. As for the experimental part: (§1) In vitro GLP-1 secretion assay was performed in human enteroendocrinal L cells (NCI-H716). For each secretion assay, cells were seeded at 1×10^5 cells/ml (1 ml/well) in a matrigel-coated 24-well plate. Prior to GLP-1 secretion assay, cells were pre-treated with DMSO, 1 μM Fex, or 1 μM Fex-D overnight. Cells were deprived in Krebs buffer (with 0.1% BSA) with dipeptidyl peptidase (DPP)-4 inhibitor ([…] sitagliptin). GLP-1 was measured with a commercial kit (EZGLP1T-36K, Millipore). For in vivo GLP-1 secretion, each animal was gavaged with 25 mg per kg of body weight sitagliptin 60-minutes before glucose load. Blood was collected from the tail vein at the indicated intervals, and transferred to serum collection tubes containing sitagliptin.

The subject of assay [2] is Leptin-deficient ob/ob mice. In words: metabolic phenotype and glucose homeostasis of treated ob/ob mice. Format: in vivo, mouse. As for the experimental part: Leptin-deficient ob/ob mice were purchased from Jackson laboratory (stock no. 000632). Each mouse consumed 100 mg per kg of body weight Fex (in corn oil) per day by oral gavage for 5 weeks. For in vivo analog study, each mouse consumed 50 mg per kg of body weight Fex-D (in corn oil) per day by oral gavage for 14 days. For GLP-1 receptor antagonist study, each mouse was daily treated with 100 μg per kg of body weight Exendin 9-39 amide (Abcam) via intraperitoneal injection for 2 weeks. For INT-777 study, each mouse was daily gavaged with 60 mg per kg of body weight INT-777 (in corn oil) for 5 weeks. For FGF15 study, each mouse was daily treated with 0.25 mg per kg of body weight FGF15 (in PBS with 0.1% BSA) via intravenous injection for 2 weeks. The sample sizes for all animal studies are indicated in each figure legend. All mice were housed in a specific pathogen-free facility with a 12-h light, 12-h dark cycle and given free access to food and water. All in vivo data were retrieved from 3 independent experimental animal cohorts. Core body temperature was measured with a clinical rectal thermometer (Thermalert model TH-5; Physitemp). For GTTs, 6-h fasted mice received 2 g of glucose per kg of body weight by oral gavage. Human insulin (Humilin, Eli Lilly) was used for insulin sensitivity test. Tail blood was drawn at indicated time intervals, and blood glucose level was measured with a One Touch Ultra glucometer (LifeScan). Body composition was measured with Echo MRI-100 body composition analyzer (Echo Medical Systems). All mice were randomly assigned to experimental groups for further analysis. No samples were excluded from the analysis.
Real-time metabolic analyses were conducted in a Comprehensive Lab Animal Monitoring System (Columbus Instruments). CO2 production, O2 consumption, RQ (relative rates of carbohydrate versus fat oxidation) and ambulatory counts were determined for 4 consecutive days and nights, with at least 24-h for adaptation before data recording.
To investigate the effect of Fex treatment in a diabetic mouse model, leptin-deficient obese mice (ob/ob) were subjected to daily treatment by oral gavage (100 mg/kg) for 5 weeks. […] Gene expression analysis confirmed the induction of UCP1 as well as a number of genes involved in β-oxidation, thermogenesis and oxidative phosphorylation (FIG. 1B-1D).

Assay [3] has as its system ob/ob mice. Nature of the assay: in vivo GLP-1 secretion after glucose load. The arrangement: species or system mouse. The note with it: Fex-treated ob/ob mice, sitagliptin (25 mg/kg) prior to glucose challenge. As for the experimental part:
as §1
To investigate whether Fex enhances GLP-1 secretion in vivo, mice were challenged with a DPP4 inhibitor, sitagliptin (25 mg/kg) prior to a glucose challenge.

Assay [4] has as its system ob/ob mice. Nature of the assay: in vivo glucose-stimulated insulin secretion (GSIS). The arrangement: species or system mouse. The note with it: Fex 100 mg/kg daily P.O., 5 weeks. As for the experimental part:
Insulin resistance can be associated with reduced […] insulin secretion in response to glucose, while GLP-1 augments glucose-stimulated insulin secretion (GSIS). To examine whether Fex treatment improves GSIS, serum insulin levels were determined after a glucose challenge in ob/ob mice.

Assay [5] relates to pancreatic islets from ob/ob mice. Nature of the assay: Insulin secretion assay on isolated pancreatic islets (ex vivo). The format is cell-based, mouse. The note with it: islets from Fex-treated mice. As for the experimental part: Mouse pancreatic islets were isolated from ob/ob mice according to a method used for rats traditionally. Briefly, 0.5 mg/ml collagenase P (Roche) diluted in HBSS buffer was injected through the common bile duct and the perfused pancreas was dissected and incubated in water bath with 37° C. for 21 minutes. Digested exocrine cells and intact islets were separated using Histopaque-1077 (SIGMA) with centrifugation by 900 g for 15 minutes and intact islets were picked up manually.
Insulin release from intact islets was monitored using batch incubation methods.
Isolated pancreatic islets were cultured over-night with […] supplemented with 10% (v/v) fetal bovine serum and 1% (v/v) Antibiotics-antimycotic solution, were pre-cultured at 37° C. for 30 minutes in Krebs Ringer bicarbonate buffer (KRBH) containing 129.4 mM NaCl, 3.7 mM KCl, 2.7 mM CaCl2, 1.3 mM KH2PO4, 1.3 mM MgSO4, 24.8 mM NaHCO3 (equilibrated with 5% CO2, 95% O2, pH7.4), 10 mM HEPES and 0.2% (v/v) BSA (fraction V) with 3 mM glucose. N ext, the pancreatic islets were incubated for 30 minutes KRBH buffer (500 μl/10 islets) with 3 mM or 20 mM glucose with or without 100 nM Exendin-4 to determine insulin secretion levels. At the end of the incubation period, islets were pelleted by centrifugation, and aliquots of the buffer were sampled. The amounts of insulin were determined by Rat/mouse Insulin ELISA KIT (Millipore) for mice islets.

Where [6] appears, read: Fex 100 mg/kg daily oral gavage, 5 weeks.
[7] abbreviates: Fex 100 mg/kg daily oral gavage, 5 weeks, after 4 hour fast.

For `COC(=O)/C=C/c1cccc(N(Cc2ccc(-c3ccc(N(C)C)cc3)cc2)C(=O)C2CCCCC2)c1` [Fexaramine], the “maximum respiration rate induced by FCCP” value with NCI-H716 cells (L cells, Fex 1 μM for 24 hr, vehicle-treated L cells 130%) stood at 155%. Moreover, the “oxygen consumption rate (OCR)” value with NCI-H716 cells (human L cells, 24 hours, fexaramine 1 μM, guggulsterone 10 μM) is on record as “increase”. The “GLP-1 secretion in response to a glucose challenge” value in assay [1] is listed as “significant increase”. In addition, in assay [2] (setting [6]), the core temperature result is on record as “increase”, the glucose tolerance entry is “improved”, the “gonadal fat (gWAT) tissue weight” value is on record as “modestly but significantly reduced” and the hepatic gluconeogenesis/lipogenesis result is recorded as “remarkably suppressed”. Moreover, in assay [2] (setting [6]), the insulin sensitivity entry is given as “improved” and the “proportion of M2 macrophages in gWAT” value was “increasing”. Further, in assay [2] (setting [7]), the glucose levels entry is listed as “reduced” and the insulin levels result is “reduced”. The “respiratory exchange ratio in the dark period” value in assay [2] (Fex 100 mg/kg daily oral gavage, 5 weeks, metabolic cages) is recorded as “increased”. The “time serum glucose levels remained low after cessation of treatment” value in assay [2] (monitored for 4 weeks after Fex treatment was stopped) amounted to 3 weeks. In the assay on ob/ob mice [3], the “glucose tolerance after DPP4 inhibitor pre-treatment” value is listed as “improved” and the “plasma GLP-1 level 20 minutes after the glucose challenge” value is given as “increase”. For the same compound, in the assay with ob/ob mice [4], the “serum insulin after a glucose challenge” value is “significant increase”. In assay [5], the “ex vivo insulin secretion in response to 20 mM glucose” value is on record as “dramatically increased” and the “insulin content in ex vivo islets” value is “significantly higher”.

Values taken from patent US20180000768A1, “INTESTINAL FXR AGONISM ENHANCES GLP-1 SIGNALING TO RESTORE PANCREATIC BETA CELL FUNCTIONS” (Salk Institute for Biological Studies, priority 2015, published 2018).
